Target: T1, Dopamine beta hydroxylase (Homo sapiens, UniProt P09172)
T1 construct: 125 μl of plasma; tissue Instituto Português do Sangue Transplantação; host or cells: human plasma from healthy donors
T1 sequence (P09172 40-617 limits assumed): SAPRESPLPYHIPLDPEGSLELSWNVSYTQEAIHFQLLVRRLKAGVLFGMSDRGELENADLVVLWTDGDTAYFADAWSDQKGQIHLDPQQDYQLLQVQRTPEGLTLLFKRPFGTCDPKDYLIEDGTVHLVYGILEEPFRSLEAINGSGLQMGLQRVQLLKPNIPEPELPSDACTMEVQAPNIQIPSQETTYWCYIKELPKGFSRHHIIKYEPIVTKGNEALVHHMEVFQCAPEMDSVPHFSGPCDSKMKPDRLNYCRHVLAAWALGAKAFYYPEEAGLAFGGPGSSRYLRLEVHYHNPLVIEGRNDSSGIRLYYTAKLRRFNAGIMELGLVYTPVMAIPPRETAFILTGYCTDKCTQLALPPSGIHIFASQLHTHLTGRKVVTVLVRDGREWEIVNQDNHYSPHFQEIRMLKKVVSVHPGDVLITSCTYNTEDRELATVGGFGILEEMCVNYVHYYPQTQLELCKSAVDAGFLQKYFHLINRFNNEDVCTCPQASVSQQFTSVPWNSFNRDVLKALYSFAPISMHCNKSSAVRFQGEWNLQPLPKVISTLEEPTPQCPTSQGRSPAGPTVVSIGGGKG
Experiment: Dopamine beta hydroxylase activity in human plasma
Assay type: biochemical
Conditions: for Plasma (0.01 μM), activity in % of control: inhibitor 0.01 μM; for Plasma (0.1 μM), activity in % of control: inhibitor 0.1 μM
Experimental: Furthermore, the ability of a compound to inhibit DβH activity may be assessed in human plasma using the following assay. […]. Dopamine beta hydroxylase activity in human plasma was measured by the method of Nagatsu and Udenfriend (Nagatsu, T. and Udenfriend, S. “Photometric assay of dopamine-μ-hydroxylase activity in human blood.” Clin. Chem. 18(9) 980-983, 1972) with minor modifications. Catalase, N-ethylmaleimide, tyramine, disodium fumarate, pargyline, sodium acetate, ascorbic acid, copper sulfate and octopamine were obtained from Sigma Chemical Co., St. Louis, Mo. 63178. Human plasma samples were obtained from healthy donors (Instituto Português do Sangue Transplantação, Centro Sangue Transplantação, Porto, Portugal). From date of collection, plasma was stored at −80° C. until use. Test compounds were initially prepared in dimethyl sulfoxide at a concentration of 10 mM and diluted in dimethyl sulfoxide to the required concentrations. Test compounds were further diluted in ultrapure water to a concentration 20-fold to that of the final concentration to be tested. Final concentrations of test compounds were 10, 100 and 1000 nM. The various reagents used to make up the incubation buffer were premixed and consisted of the following components: sodium acetate buffer (1 M, pH 5.0, 18 ml), sodium fumarate (0.2 M, 4.5 ml), ascorbic acid (0.2 M, 4.5 ml, freshly prepared), pargyline (20 mM, freshly prepared, 4.5 ml), N-ethylmaleimide (0.2 M, 4.5 ml), catalase (10 000 U/ml, 9 ml), copper sulfate (20 μM, 4.5 ml) and 4.5 ultrapure water. The standard incubation mixture (total volume, 950 μl) contained: 50 μL of compound or vehicle (dimethyl sulfoxide 2%); 700 μL of incubation buffer; 125 μl of plasma (or saline for blank reaction or standard curve); 75 μl of saline. The reaction mixture was placed in water bath, shaking at 37° C. and pre-incubated for 10 minutes. Tyramine (0.5 M) was added and incubation proceeded for 45 minutes. The reaction contents were exposed to air. A sample of enzyme preparation (with 125 μl of plasma) that had been added perchloric acid 2 M at the end of the pre-incubation period was used as blank. A blank for each of the tested compounds was used. For octopamine standard curve, perchloric acid 2 M was replaced by increasing concentrations of octopamine prepared in perchloric acid 2 M (0.5, 1, 2.5, 5, 7.5, 10, 15, 20 μg/ml, final concentration). The incubation was stopped by adding 200 μl of 2 M molar perchloric acid, and the mixture was centrifuged at 9000 g for 5 min. The supernatant fluid (800 μL) was transferred to a column (SPE cartridge ISOLUTE SCX-3, 100 mg) and centrifuged at 150 g for 2 min. The column was washed two more times with 0.5 ml of ultrapure water by centrifuging at 150 g for 2 min. The adsorbed octopamine was eluted twice with 0.3 ml of 4 M ammonium hydroxide by centrifuging at 150 g for 2 min. Octopamine in the eluate was then converted to p-hydroxybenzaldehyde by adding 200 μl of sodium periodate (2%) and incubating for 6 min. Excess periodate was than reduced by adding 200 μl of sodium metabisulfite (10%). Absorbance was measured at […] in a 96-well plate by use of a SpectraMAX plus 384 (Molecular Devices) with software SOFTmax® PRO Software 5.3 spectrophotometer. Absorbance was linear with octopamine concentration from 0.5 to 20 μg/ml. Dopamine beta hydroxylase activity is determined as nmol of octopamine formed/ml of plasma/hour and effect of compounds is presented as % control.
Results are reported in the table below as activity in % of control at the inhibitor concentration tested.

Compound | Plasma (0.01 μM), activity in % of control | Plasma (0.1 μM), activity in % of control | Plasma (1 μM), activity in % of control (inhibitor 1 μM)
OCCc1[nH]c(=S)n2c1C[C@H](c1c(F)ccc(Br)c1F)C2 [Example 173, (R)-6-(3-bromo-2,6-difluorophenyl)-1-(2-hydroxyethyl)-2,5,6,7-tetrahydro-3H-pyrrolo[1,2-c]imidazole-3-thione] | 94.2 % of control | 33.1 % of control | 
Cn1c(CCC(=O)Nc2ccccn2)c2n(c1=S)C[C@@H](c1c(F)cccc1F)C2 [Example 269, (R)-3-(6-(2,6-difluorophenyl)-2-methyl-3-thioxo-2,5,6,7-tetrahydro-3H-pyrrolo[1,2-c]imidazol-1-yl)-N-(pyridin-2-yl)propanamide] | 105.6 % of control | 83.7 % of control | 
O=C(Cc1[nH]c(=S)n2c1C[C@@H](c1c(F)ccc(Br)c1F)C2)NC1CC1 [Example 94, (S)-2-(6-(3-bromo-2,6-difluorophenyl)-3-thioxo-2,5,6,7-tetrahydro-3H-pyrrolo[1,2-c]imidazol-1-yl)-N-cyclopropylacetamide] |  | 47.5 % of control | 0.8 % of control
O=C(CCc1[nH]c(=S)n2c1C[C@H](c1c(F)c(F)cc(F)c1F)C2)N1CCCC1 [Example 204, (R)-1-(pyrrolidin-1-yl)-3-(6-(2,3,5,6-tetrafluorophenyl)-3-thioxo-2,5,6,7-tetrahydro-3H-pyrrolo[1,2-c]imidazol-1-yl)propan-1-one] | 26.5 % of control | 1.1 % of control | 
Cn1c(CC(=O)O)c2n(c1=S)C[C@@]1(c3cc(Br)ccc3F)C[C@@H]21 [Example 275, 2-((5aS,6aR)-5a-(5-bromo-2-fluorophenyl)-2-methyl-3-thioxo-2,3,5,5a,6,6a-hexahydrocyclopropa[3,4]pyrrolo[1,2-c]imidazol-1-yl)acetic acid] | 79.0 % of control | 24.4 % of control | 
Cn1c(CC(=O)N2CCOCC2)c2n(c1=S)C[C@@H](c1c(F)ccc(F)c1F)C2 [Example 237, (R)-2-(2-methyl-3-thioxo-6-(2,3,6-trifluorophenyl)-2,5,6,7-tetrahydro-3H-pyrrolo[1,2-c]imidazol-1-yl)-1-morpholinoethan-1-one] | 92.9 % of control | 61.6 % of control | 
Cn1c(CC(=O)NCc2cccnc2)c2n(c1=S)C[C@H](c1c(F)ccc(Cl)c1F)C2 [Example 290, (S)-2-(6-(3-chloro-2,6-difluorophenyl)-2-methyl-3-thioxo-2,5,6,7-tetrahydro-3H-pyrrolo[1,2-c]imidazol-1-yl)-N-(pyridin-3-ylmethyl)acetamide] | 37.6 % of control | 3.8 % of control | 
Cn1c(CC(=O)N2CCNC(=O)C2)c2n(c1=S)C[C@@H](c1c(F)c(F)cc(F)c1F)C2 [Example 323, (R)-4-(2-(2-methyl-6-(2,3,5,6-tetrafluorophenyl)-3-thioxo-2,5,6,7-tetrahydro-3H-pyrrolo[1,2-c]imidazol-1-yl)acetyl)piperazin-2-one] | 86.3 % of control | 43.3 % of control | 
CN(CCc1[nH]c(=S)n2c1C[C@@H](c1c(F)ccc(Cl)c1F)C2)C(=O)c1cccnc1 [Example 226, (S)—N-(2-(6-(3-chloro-2,6-difluorophenyl)-3-thioxo-2,5,6,7-tetrahydro-3H-pyrrolo[1,2-c]imidazol-1-yl)ethyl)-N-methylnicotinamide] | 100.8 % of control | 47.4 % of control | 
O=C(Cc1[nH]c(=S)n2c1[C@@H]1C[C@]1(c1c(F)ccc(Cl)c1F)C2)NCC(F)(F)F [Example 150, 2-((5aS,6aR)-5a-(3-chloro-2,6-difluorophenyl)-3-thioxo-2,3,5,5a,6,6a-hexahydrocyclopropa[3,4]pyrrolo[1,2-c]imidazol-1-yl)-N-(2,2,2-trifluoroethyl)acetamide] | 64.8 % of control | 17.1 % of control | 

Further lines, results first:

Plasma (0.01 μM), activity in % of control | Plasma (0.1 μM), activity in % of control | Plasma (1 μM), activity in % of control (inhibitor 1 μM) | Compound
39.8 % of control | 5.5 % of control |  | CN(C(=O)Cc1c2n(c(=S)n1C)C[C@H](c1c(F)ccc(Br)c1F)C2)[C@@H]1CCOC1 [Example 451, 2-((S)-6-(3-bromo-2,6-difluorophenyl)-2-methyl-3-thioxo-2,5,6,7-tetrahydro-3H-pyrrolo[1,2-c]imidazol-1-yl)-N-methyl-N—((R)-tetrahydrofuran-3-yl)acetamide]
49.6 % of control | 12.8 % of control |  | CN(C)C(=O)C1CCN(C(=O)Cc2c3n(c(=S)n2C)C[C@H](c2c(F)ccc(Br)c2F)C3)CC1 [Example 452, (S)-1-(2-(6-(3-bromo-2,6-difluorophenyl)-2-methyl-3-thioxo-2,5,6,7-tetrahydro-3H-pyrrolo[1,2-c]imidazol-1-yl)acetyl)-N,N-dimethylpiperidine-4-carboxamide]
95.1 % of control | 73.7 % of control |  | Cn1c(CC(=O)N2CCOCC2)c2n(c1=S)C[C@@H](c1c(F)cccc1F)C2 [Example 445, (R)-2-(6-(2,6-difluorophenyl)-2-methyl-3-thioxo-2,5,6,7-tetrahydro-3H-pyrrolo[1,2-c]imidazol-1-yl)-1-morpholinoethan-1-one]
40.8 % of control | 10.9 % of control |  | Cn1c(CC(=O)NCC2CCOCC2)c2n(c1=S)C[C@H](c1c(F)ccc(Cl)c1F)C2 [Example 352, (S)-2-(6-(3-chloro-2,6-difluorophenyl)-2-methyl-3-thioxo-2,5,6,7-tetrahydro-3H-pyrrolo[1,2-c]imidazol-1-yl)-N-((tetrahydro-2H-pyran-4-yl)methyl)acetamide]
78.7 % of control | 26.2 % of control |  | O=C(Cc1[nH]c(=S)n2c1C[C@@H](c1c(F)ccc(Cl)c1F)C2)N[C@H]1CCOC1 [Example 404, 2-((S)-6-(3-chloro-2,6-difluorophenyl)-3-thioxo-2,5,6,7-tetrahydro-3H-pyrrolo[1,2-c]imidazol-1-yl)-N—((S)-tetrahydrofuran-3-yl)acetamide]
43.9 % of control | 18.2 % of control |  | [2H]C([2H])([2H])n1c(CC(=O)N2CCOCC2)c2n(c1=S)C[C@H](c1c(F)ccc(Cl)c1F)C2 [Example 460, (S)-2-(6-(3-chloro-2,6-difluorophenyl)-2-(methyl-d)-3-thioxo-2,5,6,7-tetrahydro-3H-pyrrolo[1,2-c]imidazol-1-yl)-1-morpholinoethan-1-one]
